Test results from patent US10774064B2 (Cadent Therapeutics, Inc., priority 2016, dated 2020).

Each molecule was assayed against T1, small-conductance Ca2+-activated K+ channels (SK channels, subtype 2) (Homo sapiens, UniProt Q9H2S1) (assay: whole-cell patch-clamp of ionic current through SK2 channels in HEK293 cells (SC100)). Settings: concentration that increases the basal current by 100%; HEK293 cells expressing SK2 channels.
T1 construct: expressed in transfected cells; host or cells: HEK293
Type: cell-based
Method: The biological activity was determined as follows. The ionic current through small-conductance Ca^2+-activated K^+ channels (SK channels, subtype 2) was measured using the whole-cell configuration of the patch-clamp technique in a patch-clamp set-up using HEK293 tissue culture cells expressing SK2 channels as described in Hougaard et al., British Journal of Pharmacology 151, 655-665, May 8, 2007, the entire teachings of which are incorporated herein by reference. In one aspect, a compound is defined to be an SK PAM if the compound increases current in this assay, for example, if the SC100 value of the compound is less than or equal to 10 μM as determined by this assay. The SC100 value is defined to be the concentration of compound that increases the basal current by 100%.

SMILES | SC100
Cc1cc(NC2CCC(F)(F)CC2)nc(-n2ccc(C)n2)n1 [Compound 148, N-(4,4-difluorocyclohexyl)-6-methyl-2-(3-methyl-1H-pyrazol-1-yl)pyrimidin-4-amine] | ++ (++ means 200 nM-1000 nM)
Cc1cc(C)n(-c2cc(N3CCNC(C(N)=O)C3)nc(NC3CCC(F)(F)CC3)n2)n1 (stereo not drawn) [Compound 106, 4-(2-((4,4-difluorocyclohexyl)amino)-6-(3,5-dimethyl-1H-pyrazol-1-yl)pyrimidin-4-yl)piperazine-2-carboxamide] | ++ (++ means 200 nM-1000 nM)
Cc1cc(NC2CCC(F)(F)CC2)nc(-c2nc(CF)cs2)n1 [Compound 273, N-(4,4-difluorocyclohexyl)-2-(4-(fluoromethyl)thiazol-2-yl)-6-methylpyrimidin-4-amine] | ++ (++ means 200 nM-1000 nM)
Cc1cc(C)n(-c2cc(C3CC3)nc(NC3CCC(F)(F)CC3)n2)n1 [Compound 226, 4-cyclopropyl-N-(4,4-difluorocyclohexyl)-6-(3,5-dimethyl-1H-pyrazol-1-yl)pyrimidin-2-amine] | ++ (++ means 200 nM-1000 nM)
Cc1cc(NC2CCC(F)(F)CC2)nc(-n2nc(C(F)F)cc2C)n1 [Compound 237, N-(4,4-difluorocyclohexyl)-2-(3-(difluoromethyl)-5-methyl-1H-pyrazol-1-yl)-6-methylpyrimidin-4-amine] | ++ (++ means 200 nM-1000 nM)
Cc1cc(C)n(-c2nc(CO)cc(NC3CCC(F)(F)C3)n2)n1 (stereo not drawn) [Compound 192, (6-((3,3-difluorocyclopentyl)amino)-2-(3,5-dimethyl-1H-pyrazol-1-yl)pyrimidin-4-yl)methanol] | ++ (++ means 200 nM-1000 nM)
CC(C)(C)C(=O)N1CC(Oc2cc(NC3CCC(F)(F)CC3)nc(-n3ccc(CF)n3)n2)C1 [Compound 293, 1-(3-((6-((4,4-difluorocyclohexyl)amino)-2-(3-(fluoromethyl)-1H-pyrazol-1-yl)pyrimidin-4-yl)oxy)azetidin-1-yl)-2,2-dimethylpropan-1-one] | ++ (++ means 200 nM-1000 nM)
Cc1ccn(-c2nc(NC3CCC(F)(F)CC3)cc(N3CC4C(N)C4C3)n2)n1 (stereo not drawn) [Compound 155, 3-(6-((4,4-difluorocyclohexyl)amino)-2-(3-methyl-1H-pyrazol-1-yl)pyrimidin-4-yl)-3-azabicyclo[3.1.0] hexan-6-amine] | + (+ means >1 uM)
Cc1cccc(-c2nc(C)cc(NC3CCC(F)(F)CC3)n2)n1 [Compound 224, N-(4,4-difluorocyclohexyl)-6-methyl-2-(6-methylpyridin-2-yl)pyrimidin-4-amine] | + (+ means >1 uM)
Cc1cc(C)n(-c2cc(C(F)F)nc(NC3CCC(F)(F)C3)n2)n1 (stereo not drawn) [Compound 181, N-(3,3-difluorocyclopentyl)-4-(difluoromethyl)-6-(3,5-dimethyl-1H-pyrazol-1-yl)pyrimidin-2-amine] | + (+ means >1 uM)

Same assay, conditions: whole-cell patch-clamp, HEK293 cells expressing SK2 channels; concentration that increases the basal current by 100%

SMILES | SC100 (μM)
Cc1csc(-c2nc(NC3CCCCC3)cc(C(C)O)n2)n1 (stereo not drawn) [IN10880-093-P1] | ++ (++ means 200 nM-1000 nM)
Cc1ccn(-c2nc(C#N)cc(NC3CCC(F)(F)CC3)n2)n1 [IN11288-025-P1] | + (+ means >1 uM)
Cc1cc(C)n(-c2cc(N3C[C@@H]4C[C@H]3CO4)nc(NC3CCC(F)(F)CC3)n2)n1 [NSSy6639] | + (+ means >1 uM)
Cc1csc(-c2nc(NC3CCC(F)CC3)cc(N3CCOCC3)n2)n1 (stereo not drawn) [NSSy5699, N-(4-fluorocyclohexyl)-2-(4-methylthiazol-2-yl)-6-morpholinopyrimidin-4-amine] | + (+ means >1 uM)
Cc1csc(-c2cc(N3CC4(COC4)C3)nc(NC3CCC(F)(F)CC3)n2)n1 [NSSy6558, N-(4,4-difluorocyclohexyl)-4-(4-methylthiazol-2-yl)-6-(2-oxa-6-azaspiro [3.3]heptan-6-yl)pyrimidin-2-amine] | ++ (++ means 200 nM-1000 nM)
COc1cc(NC2CCCCC2(F)F)nc(-c2nc(C)cs2)n1 (stereo not drawn) [IN11140-063-P1] | + (+ means >1 uM)
Cc1ccn(-c2nc(N[C@@H]3C[C@H]4CC[C@@H]3O4)cc(N3CCOCC3)n2)n1 [NSSy6445] | + (+ means >1 uM)
Cc1cc(C)n(-c2nc(NC3CCC(F)(F)CC3)nc(N3CCOCC3)n2)n1 [IN10881-098-P1, N-(4,4-difluorocyclohexyl)-4-(3,5-dimethyl-1H-pyrazol-1-yl)-6-morpholino-1,3,5-triazin-2-amine] | + (+ means >1 uM)
Cc1csc(-c2nc(NC3CCCCC3)cc(N3CCN(C4COC4)CC3)n2)n1 [NSSy6149] | ++ (++ means 200 nM-1000 nM)
Cc1ccn(-c2nc(NC3CCC(F)(F)CC3)cc(C(O)c3ccccc3)n2)n1 (stereo not drawn) [IN10987-039-P1] | + (+ means >1 uM)
COC(=O)NC(C)c1cc(NC2CCC(F)(F)CC2)nc(-n2ccc(C)n2)c1 (stereo not drawn) [IN11054-005-P1, methyl (1-(2-((4,4-difluorocyclohexyl)amino)-6-(3-methyl-1H-pyrazol-1-yl)pyridin-4-yl)ethyl) carbamate] | + (+ means >1 uM)
Cc1cc(NC2CCC(F)(F)CC2)nc(-n2ccc(OC(C)C)n2)n1 [IN11133-094-P1, N-(4,4-difluorocyclohexyl)-2-(3-isopropoxy-1H-pyrazol-1-yl)-6-methylpyrimidin-4-amine] | + (+ means >1 uM)
FC1(F)CCC(Nc2nccc(-n3ccc(C4CC4)n3)n2)CC1 [NSSy6945, 4-(3-cyclopropyl-1H-pyrazol-1-yl)-N-(4,4-difluorocyclohexyl)pyrimidin-2-amine] | ++ (++ means 200 nM-1000 nM)
Cc1ccn(-c2cc(C(O)c3nnc(C)o3)cc(NC3CCC(F)(F)CC3)n2)n1 (stereo not drawn) [NSSy6576] | ++ (++ means 200 nM-1000 nM)
Cc1ccn(-c2cc(N3CCOCC3)cc(C(O)c3ccc(F)cc3)n2)n1 (stereo not drawn) [NSSy6472, (4-fluorophenyl) (6-(3-methyl-1H-pyrazol-1-yl)-4-morpholinopyridin-2-yl) methanol] | + (+ means >1 uM)
Cc1ccnn1-c1cc(N2CCOCC2)nc(NC2CCC(F)(F)CC2)n1 [NSSy6525] | + (+ means >1 uM)

SMILES | SC100 (μM)
CC(C)C(=O)NCc1cc(NC2CCC(F)(F)CC2)nc(-n2ccc(CF)n2)c1 [NSSy5620, N-((2-((4,4-difluorocyclohexyl)amino)-6-(3-(fluoromethyl)-1H-pyrazol-1-yl)pyridin-4-yl)methyl)isobutyramide] | ++ (++ means 200 nM-1000 nM)
Cc1csc(-c2cc(C(O)c3nnc(C)o3)cc(NC3CCC(F)(F)CC3)n2)n1 (stereo not drawn) [NSSy6750, (2-((4,4-difluorocyclohexyl)amino)-6-(4-methylthiazol-2-yl)pyridin-4-yl)(5-methyl-1,3,4-oxadiazol-2-yl)methanol] | ++ (++ means 200 nM-1000 nM)
Cc1csc(-c2nc(NC3CCC(F)(F)CC3)cc(OCc3nnc(C)o3)n2)n1 [NSSy5651] | ++ (++ means 200 nM-1000 nM)
Cc1ccn(-c2cc(OCc3ncnn3C)cc(NC3CCC(F)(F)CC3)n2)n1 [NSSy5737] | ++ (++ means 200 nM-1000 nM)
OCc1cc(NC2CCC(F)(F)CC2)nc(-n2ccc(C(F)(F)F)n2)n1 [IN11053-060-P1, (6-((4,4-difluorocyclohexyl)amino)-2-(3-(trifluoromethyl)-1H-pyrazol-1-yl)pyrimidin-4-yl) methanol] | ++ (++ means 200 nM-1000 nM)
Cc1cc(C)n(-c2nc(NC3CCC(F)(F)CC3)cc(N3CC(F)(F)OC(F)(F)C3)n2)n1 [IN11030-035-P1] | ++ (++ means 200 nM-1000 nM)
Cc1ccn(-c2cc(C(C)(C)O)cc(NC3CCC(F)(F)CC3)n2)n1 [NSSy5846] | ++ (++ means 200 nM-1000 nM)
Cc1cc(C)n(-c2nc(NC3CCC(F)(F)CC3)cc(N3CCOCC3COC(C)C)n2)n1 (stereo not drawn) [IN10965-089-P1] | ++ (++ means 200 nM-1000 nM)
Cc1ccn(-c2cc(N3CC4(COC4)C3)nc(NC3CCC(F)(F)CC3)n2)n1 [NSSy6522] | ++ (++ means 200 nM-1000 nM)
Cc1ccn(-c2nc(NC3CCC(F)(F)CC3)cc(OC3CC(O)C3)n2)n1 (stereo not drawn) [NSSy5879, 3-((6-((4,4-difluorocyclohexyl)amino)-2-(3-methyl-1H-pyrazol-1-yl)pyrimidin-4-yl)oxy)cyclobutan-1-ol] | ++ (++ means 200 nM-1000 nM)
COC(=O)NCCOc1nc(-c2nc(C)cs2)nc(NC2CCC(F)(F)CC2)c1OC [IN11104-041-P1] | ++ (++ means 200 nM-1000 nM)
Cc1csc(-c2nc(NC3CCC(F)(F)CC3)cc(C3CCC3)n2)n1 [IN11054-081-P1, 6-cyclobutyl-N-(4,4-difluorocyclohexyl)-2-(4-methylthiazol-2-yl)pyrimidin-4-amine] | ++ (++ means 200 nM-1000 nM)
CC(=O)c1cc(N2CCOCC2)cc(NC2CCC(F)(F)CC2)n1 [IN11104-090-P1, 1-(6-((4,4-difluorocyclohexyl)amino)-4-morpholinopyridin-2-yl) ethan-1-one] | + (+ means >1 uM)
Cc1ccnn1-c1nc(NC2CCC(F)(F)CC2)cc(N2CCOCC2)n1 [IN11237-056-P1] | + (+ means >1 uM)
Cc1cc(NC2CCC(F)(F)CC2)nc(-n2ccc(C3(O)CC3)n2)n1 [IN11251-011-P1, 1-(1-(4-((4,4-difluorocyclohexyl)amino)-6-methylpyrimidin-2-yl)-1H-pyrazol-3-yl)cyclopropan-1-ol] | + (+ means >1 uM)
CC(=O)N1CCN(c2cc(-n3ccc(C4CC4)n3)nc(NC3CCC(F)(F)CC3)n2)CC1 [NSSy6909, 1-(4-(6-(3-cyclopropyl-1H-pyrazol-1-yl)-2-((4,4-difluorocyclohexyl)amino)pyrimidin-4-yl)piperazin-1-yl)ethan-1-one] | ++ (++ means 200 nM-1000 nM)
